“And” between values parts separate entries of the source, which are not always exact repeats. Identical values can stand only once.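 Method: 48-hour compound exposure of cells in 96-well plates, five concentrations, linear interpolation of endpoints. GI50 = concentration required for 50% inhibition of growth. TGI marks complete inhibition of growth.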
How the values were obtained:
Assay in all cases: inhibition of tumour cell growth, NCI panel, 48 h
[1] = system: DU-145 prostate
[2] = system: HL-60(TB) leukemia
[3] = system: KM12 colon
[4] = system: MALME-3M melanoma
[5] = system: MDA-MB-435
[6] = system: RXF 393 renal
[7] = system: SNB-75 CNS
[8] = system: UACC-257 melanoma
[9] = system: UACC-62 melanoma
[10] = system: UO-31 renal

Structure (SMILES) | GI50 [1] | TGI [1] | GI50 [2] | TGI [2] | GI50 [3] | TGI [3] | GI50 [4] | TGI [4] | GI50 [5] | TGI [5] | GI50 [6] | TGI [6] | GI50 [7] | TGI [7] | GI50 [8] | TGI [8] | GI50 [9] | TGI [9] | GI50 [10] | TGI [10]
CC[C@]12C=CCN3CC[C@@]4(c5ccc(OC)cc5N(C)[C@H]4[C@@](O)(C(=O)OC)[C@@H]1OC(=O)CCCN1CCN(CCCC(=O)O[C@@H]4[C@]5(CC)C=CCN6CC[C@@]7(c8ccc(OC)cc8N(C)[C@H]7[C@@]4(O)C(=O)OC)[C@@H]65)CC1)[C@@H]32 | 0.701 µM | 1.99 µM | 0.464 µM | 1.85 µM | 0.985 µM | 2.31 µM | 1.6 µM | 3.11 µM | 1.25 µM | 2.63 µM | 0.484 µM | 1.72 µM | 0.564 µM | 1.95 µM | 1.96 µM | 3.69 µM | 1.68 µM | 3.13 µM | 1.1 µM | 2.33 µM
CNS(=O)(=O)Nc1nccc(Cc2c(C)c3ccc(Oc4ncccn4)cc3oc2=O)c1F | 39 µM and > 10 µM | > 100 µM | 0.0449 µM and 0.00891 µM | > 100 µM | 0.467 µM and 0.367 µM | > 100 µM | < 0.01 µM and 0.00211 µM | 0.0401 µM and 0.0217 µM | 0.0526 µM and 0.0395 µM | > 100 µM | 4.99 µM and 3.02 µM | > 100 µM | > 58.9 µM | > 100 µM | 0.0153 µM and 0.0116 µM | 0.0866 µM and 0.0784 µM | < 0.0105 µM and 0.00277 µM | 0.0941 µM | – | > 100 µM
C=C(C)c1nc(Oc2ccccc2)nc(Oc2ccccc2)n1 | – | 30.4 µM | – | 4.51 µM | – | 10.9 µM | – | 27.6 µM | – | 22.3 µM | – | 8.11 µM | – | 24.5 µM | – | 23 µM | – | 18.1 µM | – | 32.1 µM
Oc1c(Br)cc(Cl)cc1C(c1cc(Cl)cc(Br)c1O)C(Cl)(Cl)Cl | 4.74 µM | 16.2 µM | 3.02 µM | 7.6 µM | 2.8 µM | 9.3 µM | 2.73 µM | 7.78 µM | 2.94 µM | 10.1 µM | 2.73 µM | 8.77 µM | 2.64 µM | 12.3 µM | 2.33 µM | 6.57 µM | 1.94 µM | 8.99 µM | 2.81 µM | 9.61 µM
Cn1cc(-c2ccc3c(c2)ncn3-c2cc(NS(=O)(=O)C3CC3)cc(-c3ccc(F)cc3F)c2)cn1 | 21.2 µM | > 100 µM | 11.9 µM | 45.4 µM | 4.96 µM | > 100 µM | 22.7 µM | 63.8 µM | 21.9 µM | > 100 µM | 1.53 µM | 8.17 µM | 0.59 µM | 8.28 µM | 27.5 µM | > 100 µM | 25.5 µM | 73.1 µM | 0.635 µM | 36.7 µM
Cc1cccc(Oc2ccc(Nc3ncnc4ccc(NC(=O)CN(C)C)cc34)cc2Cl)c1 | 2.14 µM | 10.8 µM | 2.07 µM | 4.72 µM | 2 µM | 4.09 µM | 1.72 µM | 3.35 µM | 1.67 µM | 3.14 µM | 1.61 µM | 3.19 µM | 2.01 µM | 5.05 µM | 1.71 µM | 3.3 µM | 1.71 µM | 3.38 µM | 1.12 µM | 2.47 µM
Nc1cc(C(F)(F)F)c(-c2nc(N3CCOCC3)nc(N3CCOCC3)n2)cn1 | 0.475 µM | > 100 µM | 0.381 µM | > 84.1 µM | 0.835 µM | 59.9 µM | 0.0983 µM | 0.561 µM | 0.398 µM | 5.15 µM | 0.241 µM | 1.07 µM | 0.118 µM | 2.19 µM | 0.293 µM | 2.98 µM | 0.202 µM | 1.38 µM | 0.111 µM | 2.08 µM
COc1ccc(-n2c(=O)c3ccccc3n(Cc3ccc(C(=O)NO)cc3)c2=O)cc1 | 3.24 µM | > 100 µM | 3.51 µM | > 100 µM | 1.77 µM | 4.08 µM | 1.58 µM | 5.92 µM | 1.74 µM | 3.56 µM | 1.49 µM | 3.34 µM | 1.72 µM | 5.71 µM | 1.65 µM | 4.3 µM | 1.8 µM | 4.28 µM | 6.58 µM | 21.5 µM
CC1=C(C(=O)Nc2ccc3[nH]ncc3c2)C(c2ccc(F)cc2)N=C(c2ccc(C(F)(F)F)nc2)N1 (stereo not drawn) | > 25 µM | > 25 µM | 6.67 µM | > 25 µM | 16.3 µM | > 25 µM | > 16.5 µM | > 25 µM | 4.97 µM | 12 µM | 4.31 µM | > 23.5 µM | 2.4 µM | 15.9 µM | 15.7 µM | > 25 µM | 10.1 µM | > 25 µM | 3.35 µM | 24.4 µM
CCCCCCCCCCN=C(N)c1ccc(N2CCN(c3ccc(C(N)=NCCCCCCCCCC)cc3)CC2)cc1 | 3.3 µM | 26.1 µM | 2.17 µM | > 50 µM | 2.9 µM | 17.8 µM | 6.25 µM | 17 µM | 2.83 µM | 12.6 µM | 6.82 µM | 36.1 µM | 2.34 µM | > 50 µM | 9.81 µM | 26.5 µM | 6.67 µM | 38.1 µM | 22.6 µM | > 50 µM
O=S(=O)(Nc1ccccc1)c1ccc(C2CC3(Cl)C(Cl)=C(Cl)C2(Cl)C3(Cl)Cl)cc1 (stereo not drawn) | 3.58 µM | 10.1 µM | 2.42 µM | 5.79 µM | 2.15 µM | 4.12 µM | 2.53 µM | 7.11 µM | 2.34 µM | 5.44 µM | 1.79 µM | 3.38 µM | 2.61 µM | 9.09 µM | 2.64 µM | 6.27 µM | 1.66 µM | 3.58 µM | 2.09 µM | 6.72 µM
O=S(=O)(O)C(c1ccccc1)C(O)c1ccccc1 (stereo not drawn) | – | > 100 µM | – | > 100 µM | – | > 100 µM | – | > 100 µM | – | > 100 µM | – | > 100 µM | – | > 100 µM | – | > 100 µM | – | > 100 µM | – | > 100 µM
COc1nc(N)nc2nc[nH]c12 | 720 µM | 500 µM and > 1000 µM | 715 µM and 210 µM | 500 µM and 800 µM and > 1000 µM | > 800 µM and 842 µM | > 1000 µM | > 800 µM and 665 µM | 356 µM and > 800 µM and > 1000 µM | > 801 µM | > 1000 µM | – | 489 µM and 800 µM and 914 µM | 275 µM and 263 µM | 342 µM and 679 µM and > 929 µM | > 1000 µM | 500 µM and > 800 µM and > 1000 µM | 441 µM and 349 µM | 429 µM and 800 µM and > 1000 µM | 161 µM and 299 µM | 485 µM and 579 µM and > 1000 µM
